Reference: ChEMBL document CHEMBL4715829, “Heterodimeric Rifampicin-Tobramycin conjugates break intrinsic resistance of Pseudomonas aeruginosa to doxycycline and chloramphenicol in vitro and in a Galleria mellonella in vivo model” (Eur J Med Chem, 2019)

Legend:
[1] = test system: Pseudomonas aeruginosa; assay: Antibacterial activity against Pseudomonas aeruginosa 264-101354 assessed as potentiation of chloramphenicol-induced antibacterial activity by measuring chloramphenicol MIC at 9.8 uM incubated for 18 hrs in presence of chloramphenicol by broth microdilution assay (reference value: 4096 ug/ml); assay type: functional
[2] = test system: Pseudomonas aeruginosa; assay: Antibacterial activity against Pseudomonas aeruginosa 260-97103 assessed as potentiation of doxycycline-induced antibacterial activity by measuring doxycycline MIC at 9.8 uM incubated for 18 hrs in presence of doxycycline by broth microdilution assay (reference value: 16 ug/ml); assay type: functional
[3] = test system: Pseudomonas aeruginosa; assay: Antibacterial activity against Pseudomonas aeruginosa 260-97103 assessed as fractional inhibitory concentration incubated for 18 hrs in presence of minocycline by broth microdilution assay; assay type: functional
[4] = test system: Pseudomonas aeruginosa; assay: Antibacterial activity against Pseudomonas aeruginosa 114228 assessed as fractional inhibitory concentration incubated for 18 hrs in presence of minocycline by broth microdilution assay; assay type: functional
[5] = test system: Pseudomonas aeruginosa; assay: Antibacterial activity against Pseudomonas aeruginosa 259-96918 assessed as fractional inhibitory concentration index incubated for 18 hrs in presence of tigecycline by broth microdilution assay; assay type: functional
[6] = test system: Pseudomonas aeruginosa; assay: Antibacterial activity against Pseudomonas aeruginosa 259-96918 assessed as fractional inhibitory concentration index incubated for 18 hrs in presence of rifampicin by broth microdilution assay; assay type: functional
[7] = test system: Pseudomonas aeruginosa; assay: Antibacterial activity against Pseudomonas aeruginosa 260-97103 assessed as fractional inhibitory concentration index incubated for 18 hrs in presence of tigecycline by broth microdilution assay; assay type: functional
[8] = test system: Pseudomonas aeruginosa; assay: Antibacterial activity against Pseudomonas aeruginosa 260-97103 assessed as fractional inhibitory concentration index incubated for 18 hrs in presence of minocycline by broth microdilution assay; assay type: functional
[9] = test system: Pseudomonas aeruginosa; assay: Antibacterial activity against Pseudomonas aeruginosa 262-101856 assessed as fractional inhibitory concentration index incubated for 18 hrs in presence of tigecycline by broth microdilution assay; assay type: functional
[10] = test system: Pseudomonas aeruginosa; assay: Antibacterial activity against Pseudomonas aeruginosa 264-101354 assessed as fractional inhibitory concentration index incubated for 18 hrs in presence of rifampicin by broth microdilution assay; assay type: functional
[11] = test system: Pseudomonas aeruginosa; assay: Antibacterial activity against Pseudomonas aeruginosa 260-97103 infected in Galleria mellonella larvae assessed as survival of larvae at 100 mg/kg treated at 3 hrs post-infection in presence of doxycycline and measured after 18 hrs relative to control; assay type: functional
[12] = test system: Pseudomonas aeruginosa; assay: Antibacterial activity against Pseudomonas aeruginosa 260-97103 infected in Galleria mellonella larvae assessed as survival of larvae treated at 3 hrs post-infection in presence of chloramphenicol and measured every 6 hrs for 36 hrs; assay type: functional, organism-based; conditions: dose 75-100 mg/kg
[13] = test system: Pseudomonas aeruginosa; assay: Potentiation of doxycycline-induced antibacterial activity against Pseudomonas aeruginosa 264-101354 assessed as fold change in doxycycline MIC at 9.8 uM incubated for 18 hrs in presence of doxycycline by broth microdilution assay relative to control; assay type: functional
[14] = test system: Pseudomonas aeruginosa; assay: Potentiation of doxycycline-induced antibacterial activity against Pseudomonas aeruginosa 101885 assessed as fold change in doxycycline MIC at 9.8 uM incubated for 18 hrs in presence of doxycycline by broth microdilution assay relative to control; assay type: functional
[15] = test system: Pseudomonas aeruginosa; assay: Potentiation of chloramphenicol-induced antibacterial activity against Pseudomonas aeruginosa 100036 assessed as fold change in chloramphenicol MIC at 9.8 uM incubated for 18 hrs in presence of chloramphenicol by broth microdilution assay relative to control; assay type: functional
[16] = test system: Pseudomonas aeruginosa; assay: Potentiation of doxycycycline-induced bactericidal activity against Pseudomonas aeruginosa PAO1 assessed as reduction in bacterial colonies incubated for >= 24 hrs in LB medium in presence of doxycycline followed by plating on agar plate and measured after 20 hrs by time-kill assay; assay type: functional, organism-based; conditions: dose 4.9-9.8 µM, time hrs >=44
[17] = test system: Acinetobacter baumannii; assay: Potentiation of doxycycline-induced antibacterial activity against Acinetobacter baumannii ATCC 17978 assessed as fold change in doxycycline MIC at 9.8 uM incubated for 18 hrs in presence of doxycycline by broth microdilution assay relative to control; assay type: functional
[18] = test system: Klebsiella pneumoniae; assay: Potentiation of doxycycline-induced antibacterial activity against Klebsiella pneumoniae ATCC 16381 assessed as fold change in doxycycline MIC at 9.8 uM incubated for 18 hrs in presence of doxycycline by broth microdilution assay relative to control; assay type: functional
[19] = test system: Enterobacter cloacae; assay: Potentiation of doxycycline-induced antibacterial activity against Enterobacter cloacae ATCC 117029 assessed as fold change in doxycycline MIC at 9.8 uM incubated for 18 hrs in presence of doxycycline by broth microdilution assay relative to control; assay type: functional
[20] = test system: Pseudomonas aeruginosa; assay: Antibacterial activity against Pseudomonas aeruginosa 100036 assessed as potentiation of chloramphenicol-induced antibacterial activity by measuring chloramphenicol MIC at 7.6 uM incubated for 18 hrs in presence of chloramphenicol by broth microdilution assay (reference value: 1024 ug/ml); assay type: functional
[21] = test system: Pseudomonas aeruginosa; assay: Antibacterial activity against Pseudomonas aeruginosa 114228 assessed as potentiation of doxycycline-induced antibacterial activity by measuring doxycycline MIC at 7.6 uM incubated for 18 hrs in presence of doxycycline by broth microdilution assay (reference value: 32 ug/ml); assay type: functional
[22] = test system: Pseudomonas aeruginosa; assay: Potentiation of doxycycline-induced antibacterial activity against Pseudomonas aeruginosa 101243 assessed as fold change in doxycycline MIC at 7.6 uM incubated for 18 hrs in presence of doxycycline by broth microdilution assay relative to control; assay type: functional
[23] = test system: Pseudomonas aeruginosa; assay: Potentiation of doxycycline-induced antibacterial activity against Pseudomonas aeruginosa 101885 assessed as fold change in doxycycline MIC at 7.6 uM incubated for 18 hrs in presence of doxycycline by broth microdilution assay relative to control; assay type: functional
[24] = test system: Pseudomonas aeruginosa; assay: Antibacterial activity against Pseudomonas aeruginosa 260-97103 assessed as reduction in bacterial growth by measuring chloramphenicol MIC at 8 ug/ml incubated for 18 hrs in presence of chloramphenicol by broth microdilution assay (reference value: 128 ug/ml); assay type: functional; conditions: dose 8 µg/ml
[25] = test system: Pseudomonas aeruginosa; assay: Antibacterial activity against Pseudomonas aeruginosa 91433 assessed as fractional inhibitory concentration incubated for 18 hrs in presence of doxycycline by broth microdilution assay; assay type: functional
[26] = test system: Pseudomonas aeruginosa; assay: Antibacterial activity against Pseudomonas aeruginosa 262-101856 assessed as reduction in bacterial growth by measuring doxycycline MIC at 8 ug/ml incubated for 18 hrs in presence of doxycycline by broth microdilution assay (reference value: 1024 ug/ml); assay type: functional; conditions: dose 8 µg/ml
[27] = test system: Pseudomonas aeruginosa; assay: Antibacterial activity against wild type Pseudomonas aeruginosa PAO1 assessed as reduction in bacterial growth by measuring doxycycline MIC at 0.25 ug/ml incubated for 18 hrs in presence of doxycycline by broth microdilution assay (reference value: 16 ug/ml); assay type: functional; conditions: dose 0.25 µg/ml
[28] = test system: Pseudomonas aeruginosa; assay: Antibacterial activity against Pseudomonas aeruginosa 260-97103 assessed as reduction in bacterial growth by measuring chloramphenicol MIC at 2 ug/ml incubated for 18 hrs in presence of chloramphenicol by broth microdilution assay (reference value: 128 ug/ml); assay type: functional; conditions: dose 2 µg/ml
[29] = test system: Pseudomonas aeruginosa; assay: Antibacterial activity against Pseudomonas aeruginosa 100036 assessed as reduction in bacterial growth by measuring chloramphenicol MIC at 4 ug/ml incubated for 18 hrs in presence of chloramphenicol by broth microdilution assay (reference value: 1024 ug/ml); assay type: functional; conditions: dose 4 µg/ml
[30] = test system: Pseudomonas aeruginosa; assay: Antibacterial activity against Pseudomonas aeruginosa 259-96918 assessed as reduction in bacterial growth by measuring doxycycline MIC at 2 ug/ml incubated for 18 hrs in presence of doxycycline by broth microdilution assay (reference value: 32 ug/ml); assay type: functional; conditions: dose 2 µg/ml

CO[C@H]1/C=C/O[C@@]2(C)Oc3c(C)c(O)c4c(O)c(c(/C=N/N5CCN(Cc6cn(CCCCCCO[C@@H]7[C@@H](O[C@H]8O[C@H](CO)[C@@H](O)[C@H](N)[C@H]8O)[C@H](N)C[C@H](N)[C@H]7O[C@H]7O[C@H](CN)[C@@H](O)C[C@H]7N)nn6)CC5)c(O)c4c3C2=O)NC(=O)/C(C)=C\C=C\[C@H](C)[C@H](O)[C@@H](C)[C@@H](O)[C@@H](C)[C@H](OC(C)=O)[C@@H]1C.Cl.Cl.Cl.Cl.Cl
MIC [1]: 128 µg/mL | MIC [2]: 0.125 µg/mL | FIC [3]: <0.125 | FIC [4]: <0.031 | fractional inhibitory concentration index (FICI) [5]: <0.25 | fractional inhibitory concentration index (FICI) [6]: <0.25 | fractional inhibitory concentration index (FICI) [7]: <0.16 | fractional inhibitory concentration index (FICI) [8]: <0.13 | fractional inhibitory concentration index (FICI) [9]: <0.19 | fractional inhibitory concentration index (FICI) [10]: 0.27 | survival at 100 mg/kg [11]: 87% | Activity [12]: Dose-dependent effect | fold change (FC) [13]: 4 | fold change (FC) [14]: 4 | fold change (FC) [15]: 4 | Activity [16]: Dose-dependent effect | fold change (FC) [17]: 0 | fold change (FC) [18]: 0 | fold change (FC) [19]: 0

CO[C@H]1/C=C/O[C@@]2(C)Oc3c(C)c(O)c4c(O)c(c(/C=N/N5CCN(Cc6cn(CCCCCCCCCCCCO[C@@H]7[C@@H](O[C@H]8O[C@H](CO)[C@@H](O)[C@H](N)[C@H]8O)[C@H](N)C[C@H](N)[C@H]7O[C@H]7O[C@H](CN)[C@@H](O)C[C@H]7N)nn6)CC5)c(O)c4c3C2=O)NC(=O)/C(C)=C\C=C\[C@H](C)[C@H](O)[C@@H](C)[C@@H](O)[C@@H](C)[C@H](OC(C)=O)[C@@H]1C.O=C(O)C(F)(F)F.O=C(O)C(F)(F)F.O=C(O)C(F)(F)F.O=C(O)C(F)(F)F.O=C(O)C(F)(F)F
MIC [20]: 4 µg/mL | MIC [21]: 2 µg/mL | fold change (FC) [22]: 4 | fold change (FC) [23]: 4

NC[C@H]1O[C@H](O[C@H]2[C@H](O)[C@@H](O[C@H]3O[C@H](CO)[C@@H](O)[C@H](N)[C@H]3O)[C@H](N)C[C@@H]2N)[C@H](N)C[C@@H]1O [TOBRAMYCIN]
MIC [24]: 128 µg/mL | FIC [25]: 0.5 | MIC [26]: 1020 µg/mL | MIC [27]: 8 µg/mL

CO[C@H]1/C=C/O[C@@]2(C)Oc3c(C)c(O)c4c(O)c(c(/C=N/N5CCN(C)CC5)c(O)c4c3C2=O)NC(=O)/C(C)=C\C=C\[C@H](C)[C@H](O)[C@@H](C)[C@@H](O)[C@@H](C)[C@H](OC(C)=O)[C@@H]1C [RIFAMPIN]
MIC [28]: 128 µg/mL | MIC [29]: 1020 µg/mL | MIC [30]: 32 µg/mL
